# Paper PMC9189904, “Functional Properties of Two Distinct PTH1R Mutants Associated With Either Skeletal Defects or Pseudohypoparathyroidism” (JBMR Plus, 2022)
# Residue numbers refer to the chain shown, from its start. Non-standard residues stand in square brackets, D forms with d. Residues, ends and D or L forms follow the SMILES beside them. No end group written: not given here. hArg = N=C(N)NCCCC[C@H](N)C(=O)O; Ac5c = NC1(C(=O)O)CCCC1; Aib = CC(C)(N)C(=O)O
# Columns and labels:
# PTH1R‐WT = biological target: T1, PTH1R‐WT (Homo sapiens, UniProt Q03431); test: GloSensor cAMP signaling assay in transiently transfected GS-22a cells; assay type: cell-based; conditions: for EC50: Table 2, N-terminal analogs, means of four or three (M-PTH(1-11)) experiments, each in duplicate; for EC50 / pEC50: GS-22a cells; for Emax: Table 2, percent of maximum response of the same ligand on PTHR1-WT, four or three (M-PTH(1-11)) experiments; for pEC50: Suppl. Table 2, full-length ligands, mean ± SEM of three experiments, SEM; for Emax, %: Suppl. Table 2, percent of maximum response of the same ligand on PTH1R-WT, three experiments
# T1 construct: expressed in transfected cells; plasmid TG-906 made by VectorBuilder
# T1 sequence (Q03431 27-593 E90Y/S91D/E92V/E93P/K95Y/E96A): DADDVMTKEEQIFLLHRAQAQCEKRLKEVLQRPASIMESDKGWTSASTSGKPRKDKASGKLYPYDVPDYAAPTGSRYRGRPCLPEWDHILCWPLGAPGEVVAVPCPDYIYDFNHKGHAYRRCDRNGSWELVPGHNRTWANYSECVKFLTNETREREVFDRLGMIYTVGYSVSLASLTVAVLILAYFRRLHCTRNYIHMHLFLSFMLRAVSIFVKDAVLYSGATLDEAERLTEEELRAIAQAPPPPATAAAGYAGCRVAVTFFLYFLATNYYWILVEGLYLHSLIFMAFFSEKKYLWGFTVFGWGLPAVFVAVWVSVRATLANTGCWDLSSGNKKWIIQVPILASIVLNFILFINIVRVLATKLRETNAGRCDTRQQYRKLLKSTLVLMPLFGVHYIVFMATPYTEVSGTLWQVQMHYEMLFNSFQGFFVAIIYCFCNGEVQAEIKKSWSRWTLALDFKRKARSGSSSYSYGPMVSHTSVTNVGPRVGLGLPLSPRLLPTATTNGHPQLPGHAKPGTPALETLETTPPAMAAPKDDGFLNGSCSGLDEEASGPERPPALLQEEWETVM
# Description: (§1) GS‐22a cells are derived from HEK293 cells (American Type Culture Collection [ATCC], Manassas, VA, USA; CRL‐1573) by stably transfection with the luciferase‐based GloSensor (Promega, San Luis Obispo, CA, USA) cAMP reporter plasmid pGloSensor‐22F. The cells were cultured in Dulbecco's modified Eagle medium (DMEM) supplemented with fetal bovine serum (10%) in a humidified incubator containing 5% CO2 and set at 37°C, and seeded into 96‐well or six‐well plates for transient DNA transfection and functional assays. Cells were transfected when the monolayers were 85%–95% of confluency using Lipofectamine™ 2000 (Thermo Fisher Scientific, Waltham, MA, USA) and 100 ng of DNA per well for 96‐well plates and 1000 ng of DNA per well for six‐well plates. Assays were performed 48 hours after transfection, and media was changed 2–4 hours prior to assay.
# (§2) PTH1R‐mediated cAMP signaling was assessed via the GloSensor cAMP reporter in GS‐22a cells in white 96‐well plates. Assays were performed at ambient room temperature. For each plate, the media was replaced with CO2‐independent media (Thermo Fisher Scientific; Cat. No. 18045088) containing luciferin (0.5mM) and the plate was placed into a PerkinElmer Envision plate reader and cAMP‐dependent luminescence, as counts per second (cps), was measured at 2‐minute intervals for 15 minutes, during which time luciferin uptake occurred and luminescence reached a near steady‐state baseline. The plate was then removed from the plate reader, media (vehicle) or test ligands were added at varying concentrations, and luminescence was again measured at 2‐minute intervals for an additional 30–60 minutes.
# (§3) Data were processed using Microsoft Excel and GraphPad Prism 8.0 software and analyzed statistically using a Student's t test (two‐tailed and unequal variances). Dose–response curves were fit to the data by using a three‐parameter sigmoidal dose–response equation with nonlinear regression, which yielded the reported response parameters of potency (EC50), efficacy (Emax), and […].
# PTH1R‐R186H = biological target: T2, PTH1R‐R186H (Homo sapiens, UniProt Q03431, R186H); test: as above; assay type: cell-based; conditions: for EC50: Table 2, N-terminal analogs, means of four or three (M-PTH(1-11)) experiments, each in duplicate; for EC50 / pEC50: GS-22a cells; for pEC50: Suppl. Table 2, full-length ligands, mean ± SEM of three experiments; for Emax, %: Suppl. Table 2, percent of maximum response of the same ligand on PTH1R-WT, three experiments
# T2 construct: expressed in transfected cells; plasmid TG-907 made by VectorBuilder
# T2 sequence (Q03431 27-593 E90Y/S91D/E92V/E93P/K95Y/E96A/R186H): T1 sequence (Q03431 27-593 E90Y/S91D/E92V/E93P/K95Y/E96A) with R160H
# Description: as §1, §2, §3
# PTH1R‐V204E = biological target: T3, PTH1R‐V204E (Homo sapiens, UniProt Q03431, V204E); test: as above; assay type: cell-based; conditions: for EC50: Table 2, N-terminal analogs, means of four or three (M-PTH(1-11)) experiments, each in duplicate; for EC50 / pEC50: GS-22a cells; for pEC50: Suppl. Table 2, full-length ligands, mean ± SEM of three experiments; for Emax, %: Suppl. Table 2, percent of maximum response of the same ligand on PTH1R-WT, three experiments
# T3 construct: expressed in transfected cells; plasmid TG-928 made by VectorBuilder
# T3 sequence (Q03431 27-593 E90Y/S91D/E92V/E93P/K95Y/E96A/V204E): T1 sequence (Q03431 27-593 E90Y/S91D/E92V/E93P/K95Y/E96A) with V178E
# Description: as §1, §2, §3
# PTH1R‐P132L = biological target: T4, PTH1R‐P132L (Homo sapiens, UniProt Q03431, P132L); test: as above; assay type: cell-based; conditions: Table 1, percent of maximum response of the same ligand on PTH1R-WT, mean ± SEM of five experiments
# T4 construct: expressed in transfected cells; plasmid TG-395 in pCDNA1
# T4 sequence (Q03431 27-593 E90Y/S91D/E92V/E93P/K95Y/E96A/P132L): T1 sequence (Q03431 27-593 E90Y/S91D/E92V/E93P/K95Y/E96A) with P106L
# Description: as §1, §2, §3
# [1] = biological target: HA‐tagged human PTH1R‐V204E (human) (UniProt Q03431)
# [2] = Table 2, percent of maximum response of the same ligand on PTHR1-WT, four or three (M-PTH(1-11)) experiments
# [3] = Table 1, percent of maximum response of the same ligand on PTH1R-WT, mean ± SEM of five experiments, SEM
Compound,EC50 (PTH1R‐WT) [nM],Emax (PTH1R‐WT) [%],EC50 (PTH1R‐R186H) [nM],Emax (PTH1R‐R186H; [2]) [%],EC50 (PTH1R‐V204E) [nM],Emax (PTH1R‐V204E; [2]) [%],pEC50 (PTH1R‐WT),"Emax, % (PTH1R‐WT) [%]",pEC50 (PTH1R‐R186H; SEM),"Emax, % (PTH1R‐R186H) [%]",pEC50 (PTH1R‐V204E; SEM),"Emax, % (PTH1R‐V204E) [%]",other results
"CC[C@H](C)[C@H](NC(=O)[C@H](CCC(=O)O)NC(=O)C(C)(C)NC(=O)[C@@H](NC(=O)C1(N)CCCC1)C(C)C)C(=O)N[C@@H](CCC(N)=O)C(=O)N[C@@H](CC(C)C)C(=O)N[C@@H](CCSC)C(=O)N[C@@H](Cc1c[nH]cn1)C(=O)N[C@@H](CCC(N)=O)C(=O)N[C@@H](CCCCNC(=N)N)C(N)=O [M‐PTH(1‐11), modified (M)‐PTH(1‐11)] (H-[Ac5c]V[Aib]EIQLMHQ[hArg]-NH2)",0.191,100,2.82,126 ± 14,0.759,80 ± 11,–,–,–,–,–,–,–
"CC[C@H](C)[C@H](NC(=O)[C@H](CCC(=O)O)NC(=O)[C@H](CO)NC(=O)[C@@H](NC(=O)[C@@H](N)CO)C(C)C)C(=O)N[C@@H](CCC(N)=O)C(=O)N[C@@H](CC(C)C)C(=O)N[C@@H](CCSC)C(=O)N[C@@H](Cc1c[nH]cn1)C(=O)N[C@@H](CC(N)=O)C(=O)N[C@@H](CC(C)C)C(=O)NCC(=O)N[C@@H](CCCCN)C(=O)N[C@@H](Cc1c[nH]cn1)C(=O)N[C@@H](CC(C)C)C(=O)N[C@@H](CC(N)=O)C(=O)N[C@@H](CO)C(=O)N[C@@H](CCSC)C(=O)N[C@@H](CCC(=O)O)C(=O)N[C@@H](CCCNC(=N)N)C(=O)N[C@H](C(=O)N[C@@H](CCC(=O)O)C(=O)N[C@@H](Cc1c[nH]c2ccccc12)C(=O)N[C@@H](CC(C)C)C(=O)N[C@@H](CCCNC(=N)N)C(=O)N[C@@H](CCCCN)C(=O)N[C@@H](CCCCN)C(=O)N[C@@H](CC(C)C)C(=O)N[C@@H](CCC(N)=O)C(=O)N[C@@H](CC(=O)O)C(=O)N[C@H](C(=O)N[C@@H](Cc1c[nH]cn1)C(=O)N[C@@H](CC(N)=O)C(=O)N[C@@H](Cc1ccccc1)C(N)=O)C(C)C)C(C)C [PTH(1‐34), human(h)PTH(1‐34)]",–,–,–,–,–,–,–,–,–,–,–,–,"Emax (PTH1R‐R186H; [3]): 118 ± 4%; Emax (PTH1R‐P132L): ~45%; Emax, % (PTH1R‐P132L; SEM): 44 ± 4%; Emax (PTH1R‐V204E; [3]): 81 ± 4%"
"SVSEIQLMHNLGKHLNSMERVEWLRKKL-NH2 [PTH(1‐28), hPTH(1‐28)]",0.776,100,0.575,98 ± 10,0.447,78 ± 10,–,–,–,–,–,–,–
hPTH(1‐84) [PTH(1-84)],–,–,–,–,–,–,9.05,100 ± 0,9.25,96 ± 4,9.19,115 ± 11,–
hPTHrP(1‐141) [PTHrP(1-141)],–,–,–,–,–,–,8.65,100 ± 0,8.90,108 ± 3,8.55,133 ± 12,–
human(h)PTH(1‐34) (peptide),–,–,–,–,–,–,–,–,–,–,–,–,"cAMP‐dependent GloSensor luminescence in transfected GS‐22a cells, potency: pEC50 with EC50 (nM) in parentheses [1]: 0.33 nM"
